Test results from patent US20210212998A1, “Combinations of Tie-2 Activators and Prostaglandins and Uses Thereof” (Aerpio Pharmaceuticals, Inc., priority 2020, published 2021).
Where two headings read alike, the source gives them in different places.

Legend:
[1] = test system: human subjects with OHT/POAG; assay: Phase 1b trial: conjunctival hyperemia, safety and tolerability; type: in vivo
Procedure: A randomized, double-masked Phase 1b trial was designed to assess safety, tolerability, and efficacy of a Tie-2 activator (Compound 1) as an adjunctive therapy to prostaglandins for treatment of ocular hypertension (OHT) or primary open angle glaucoma (POAG). The study assessed the effects of increasing concentrations of Compound 1 dosed topically as eye drops (5 mg/mL QD, 15 mg/mL QD, 40 mg/mL QD, and 40 mg/mL BID) in 4 sequential cohorts of 12 subjects, randomized 3:1 to receive Compound 1 or placebo, for 7 days. Conjunctival hyperemia and IOP were assessed at 0 (pre-dose), 2 hours, 4 hours, and 8 hours post-dose on Day −1 (baseline), Day 1 (first day of Compound 1 dosing), and Day 7 (last day of dosing).
In this study, 36 human subjects with OHT/POAG and baseline IOP measurements between 17 and 27 mmHg (inclusive) undergoing once-daily prostaglandin therapy were recruited. Subjects were randomized 3:1 to once-daily, 40 mg/mL Compound 1 (27 subjects), or placebo (9 subjects) in the morning (AM) for 7 days while continuing once-daily prostaglandin therapy in the evening (PM). Compound 1 (40 mg/mL) was a sodium salt formulated in 15% HPβCD and 1% mannitol. The Compound 1 ophthalmic solution was adjusted to a pH of 6.5-7.5 with 1N hydrochloric acid and/or IN sodium hydroxide prior to sterile filtration. Placebo was the same solution as the vehicle for the Compound 1 ophthalmic solution. Each dose of study medication (Compound 1 or placebo) was administered as one drop (30 μL) of dosing solution per eye in each subject. Compound 1 was administered to each eye (except on Day 1 and 2 in Cohort 1 in which only the right eye received Compound 1) by the topical ocular route using a dropper bottle to deliver eye drops. Compound 1 was administered for 7 days as a single morning dose daily. […]
IOP was measured pre-dose (0 hr), 2 hrs, 4 hrs, and 8 hrs post-dose on Day −1, Day 1, and Day 7. […] Visual field testing, conjunctival hyperemia and IOP were also assessed. IOP was assessed by Goldmann applanation tonometry in both eyes at screening, baseline, and during treatment as indicated. […]

[2] = cited from earlier work
[3] = test system: patients with mean baseline intraocular pressure of 24-25 mmHg; settings: cited from earlier work

SMILES: COC(=O)N[C@@H](Cc1ccccc1)C(=O)N[C@@H](Cc1ccc(NS(=O)(=O)O)cc1)c1csc(-c2cccs2)n1 [Compound 1]
- change in hyperemia over baseline ([1]; 2 hours post-dose): small increase
- tolerability of topical ocular administration ([1]; 7 day study): well-tolerated
- time by which hyperemia returned to baseline levels ([1]; post-dose): ≤ 8 h

SMILES: CC(C)OC(=O)CCC/C=C\C[C@@H]1[C@@H](CC[C@@H](O)CCc2ccccc2)[C@H](O)C[C@@H]1O [Latanoprost, latanoprost]
- distribution volume ([2]; humans): 0.16 ± 0.02 L/kg
- administered dose recovered in the urine ([2]; intravenous dosing): ~98%
- administered dose recovered in the urine ([2]; topical dosing): about 88%
- reductions in IOP ([3]; baseline IOP 24-25 mmHg, treated for 6 months, multi-center randomized controlled trials): 6-8 mmHg
- start of reduction of the intraocular pressure after administration ([3]; human, in vivo): 3 to 4 h
- time at which the maximum effect is reached ([3]; human, in vivo): 8 to 12 h

SMILES: O=C(O)CCC/C=C\C[C@@H]1[C@@H](CC[C@@H](O)CCc2ccccc2)[C@H](O)C[C@@H]1O [acid of latanoprost]
- t1/2, elimination from human plasma ([2]; after both intravenous and topical administration): 17 min
- Systemic clearance ([2]; human): approximately 7 mL/min/kg
